From patent publication US20230096766A1, “AMINO ACID HAVING FUNCTIONAL GROUP CAPABLE OF INTERMOLECULAR HYDROGEN BONDING, PEPTIDE COMPOUND CONTAINING SAME AND METHOD FOR PRODUCTION THEREOF” (Chugai Seiyaku Kabushiki Kaisha, priority 2018, published 2023)
*1 amine or outer side, *2 acyl side, *3 side chain or, on linkers, in order; H or OH if unused. Where a SMILES comes first, the peptide text is derived from it. Bridges are numbered along the chain shown (N, C = ends). [ ]: non-standard residue; d: D form. The star is where a group is joined. ξ: configuration not given here. X17 = CC(C)C[C@@H](C(=O)[*:2])C(C)C(=O)CCCN(C)[*:1]; Glu(NHSO2Me) = CS(=O)(=O)NC(=O)CC[C@H](N)C(=O)O; NMePhe(3-Cl) = CN[C@@H](Cc1cccc(Cl)c1)C(=O)O; ξGln(SO2Me) = CS(=O)(=O)NC(=O)CCC(N)C(=O)O; NMeW = CN[C@@H](Cc1c[nH]c2ccccc12)C(=O)O; NMeF = CN[C@@H](Cc1ccccc1)C(=O)O; NMeI = CC[C@H](C)[C@H](NC)C(=O)O; NMeξIle = CC[C@H](C)C(NC)C(=O)O; NMeL = CN[C@@H](CC(C)C)C(=O)O; NMeV = CN[C@H](C(=O)O)C(C)C; NMeAbu = CC[C@H](NC)C(=O)O; NMeA = CN[C@@H](C)C(=O)O; Piperidide = C1CCN(*)CC1; NBuGly = CCCCNCC(=O)O; Sar = CNCC(=O)O; tBu = CC(C)(C)*

Assay: in vitro
Details: human

Row | Structure (SMILES) | Papp (Caco-2, Caco-2) | Papp (Caco-2, Caco-2 (cm/sec))
1 | CCCCN1CC(=O)N(C)[C@@H](CC(C)C)C(=O)N[C@H](C(=O)N2CCCCC2)CC(=O)N(C)[C@@H](CC(C)C)C(=O)N[C@@H](CC(C)C)C(=O)N(C)[C@@H](CC)C(=O)N(C)[C@@H](Cc2ccccc2)C(=O)NC(CCC(=O)NS(C)(=O)=O)C(=O)N(C)[C@@H](Cc2cccc(Cl)c2)C(=O)N(C)[C@@H](CC(C)C)C(=O)N[C@@H]([C@@H](C)O)C1=O (stereo partly drawn) [pd64] ([NMeL]L[NMeAbu][NMeF][ξGln(SO2Me)][NMePhe(3-Cl)][NMeL]T[NBuGly][NMeL]D-Piperidide; lactam N-11) | 0.15 ×10⁻⁶ cm/s | 
2 | CCCCN1CC(=O)N(C)[C@@H](Cc2ccccc2)C(=O)NC(CCC(=O)NS(C)(=O)=O)C(=O)N(C)[C@@H](CC(C)C)C(=O)N[C@@H]([C@@H](C)O)C(=O)N(CCCC)CC(=O)N(C)[C@@H](Cc2ccccc2)C(=O)N(C)[C@@H](CC(C)C)C(=O)N[C@@H](CC(C)C)C(=O)N(C)[C@@H](CC(C)C)C(=O)N[C@H](C(=O)N2CCCCC2)CC1=O (stereo partly drawn) [pd65] ([NBuGly][NMeF][ξGln(SO2Me)][NMeL]T[NBuGly][NMeF][NMeL]L[NMeL]D-Piperidide; lactam N-11) | 0.06 ×10⁻⁶ cm/s | 
3 | CCCCN1CC(=O)N(C)[C@@H](Cc2cccc(Cl)c2)C(=O)N[C@@H](CCC(=O)NS(C)(=O)=O)C(=O)N(C)[C@@H](CC(C)C)C(=O)N[C@@H]([C@@H](C)O)C(=O)N(CCCC)CC(=O)N(C)[C@@H](Cc2ccccc2)C(=O)N(C)[C@@H](CC(C)C)C(=O)N[C@@H](CC(C)C)C(=O)N(C)[C@@H](CC(C)C)C(=O)N[C@H](C(=O)N2CCCCC2)CC1=O [pd66] ([NBuGly][NMePhe(3-Cl)][Glu(NHSO2Me)][NMeL]T[NBuGly][NMeF][NMeL]L[NMeL]D-Piperidide; lactam N-11) | 0.09 ×10⁻⁶ cm/s | 
4 | CCCCN1CC(=O)N(C)[C@@H](CC(C)C)C(=O)N[C@@H](COC(C)(C)C)C(=O)N(C)[C@@H](Cc2ccccc2)C(=O)N(C)[C@@H](C(C)C)C(=O)N[C@H](C(=O)N2CCCCC2)CC(=O)N[C@H](C(C)C)C(=O)N(C)[C@@H](Cc2ccccc2)C(=O)NC(CCC(=O)NS(C)(=O)=O)C(=O)N(C)[C@@H](CC(C)C)C(=O)N[C@@H](CC(C)C)C1=O (stereo partly drawn) [pd67] ([dV][NMeF][ξGln(SO2Me)][NMeL]L[NBuGly][NMeL]S(tBu)[NMeF][NMeV]D-Piperidide; lactam N-11) | 0.06 ×10⁻⁶ cm/s | 
5 | CC(C)C[C@@H]1NC(=O)[C@H](CC(C)C)C(C)C(=O)CCCN(C)C(=O)C[C@@H](C(=O)N2CCCCC2)NC(=O)[C@H](CC(C)C)N(C)C(=O)[C@H](CC(C)C)N(C)C(=O)[C@H](CC(C)C)NC(=O)[C@H](CC(C)C)N(C)C(=O)C(CCC(=O)NS(C)(=O)=O)NC(=O)[C@H](Cc2ccccc2)N(C)C(=O)[C@H](Cc2ccccc2)N(C)C1=O (stereo partly drawn) [pd68] ([X17]L[NMeF][NMeF][ξGln(SO2Me)][NMeL]L[NMeL][NMeL]D-Piperidide; lactam N-10) | 0.1 ×10⁻⁶ cm/s | 
6 | CCCCN1CC(=O)N(C)[C@@H](C(C)C)C(=O)N[C@H](C(=O)N2CCCCC2)CC(=O)N(C)[C@@H](CC)C(=O)N[C@@H](CC(C)C)C(=O)N(C)[C@@H](CC(C)C)C(=O)N(C)[C@@H](Cc2ccccc2)C(=O)NC(CCC(=O)NS(C)(=O)=O)C(=O)N(C)[C@@H](Cc2ccccc2)C(=O)N(C)[C@@H](CC(C)C)C(=O)N[C@@H](CC(C)C)C1=O (stereo partly drawn) [pd69] ([NMeAbu]L[NMeL][NMeF][ξGln(SO2Me)][NMeF][NMeL]L[NBuGly][NMeV]D-Piperidide; lactam N-11) | < 0.14 ×10⁻⁶ cm/s | 
7 | CCCCN1CC(=O)N(C)[C@@H](Cc2ccccc2)C(=O)NC(CCC(=O)NS(C)(=O)=O)C(=O)N(C)[C@@H](CC(C)C)C(=O)N[C@@H](CC(C)C)C(=O)N(C)CC(=O)N(C)[C@@H](Cc2ccccc2)C(=O)N(C)[C@@H](CC(C)C)C(=O)N[C@@H](CC(C)C)C(=O)N(C)[C@@H](CC(C)C)C(=O)N[C@H](C(=O)N2CCCCC2)CC1=O (stereo partly drawn) [pd70] ([NBuGly][NMeF][ξGln(SO2Me)][NMeL]L[Sar][NMeF][NMeL]L[NMeL]D-Piperidide; lactam N-11) | 0.17 ×10⁻⁶ cm/s | 
8 | CC(C)C[C@@H]1NC(=O)[C@H](CC(C)C)N(C)C(=O)[C@H](C)N(C)C(=O)[C@@H](C(C)C)NC(=O)C[C@@H](C(=O)N2CCCCC2)NC(=O)[C@H]([C@@H](C)O)NC(=O)[C@H](C)N(C)C(=O)CN(C)C(=O)[C@H](CC(C)C)N(C)C(=O)[C@H](Cc2c[nH]c3ccccc23)NC(=O)[C@H](Cc2ccccc2)N(C)C1=O [pd100] ([dV][NMeA][NMeL]L[NMeF]W[NMeL][Sar][NMeA]TD-Piperidide; lactam N-11) |  | 0.11 ×10⁻⁶ cm/s
9 | CC[C@H](C)[C@H]1C(=O)N[C@@H](Cc2c[nH]c3ccccc23)C(=O)N(C)CC(=O)N(C)[C@@H](C)C(=O)N[C@H](C(=O)N2CCCCC2)CC(=O)N(C)[C@@H](C)C(=O)N[C@@H](CC(C)C)C(=O)N(C)[C@@H](CC(C)C)C(=O)N(C)[C@@H](CC(C)C)C(=O)N[C@@H](C)C(=O)N(C)[C@@H](CC(C)C)C(=O)N1C [pd101] ([NMeA]L[NMeL][NMeL]A[NMeL][NMeI]W[Sar][NMeA]D-Piperidide; lactam N-11) |  | 0.13 ×10⁻⁶ cm/s
10 | CC[C@H](C)C1C(=O)N[C@@H]([C@@H](C)O)C(=O)N(C)CC(=O)N(C)[C@@H](CC(C)C)C(=O)N[C@H](C(=O)N2CCCCC2)CC(=O)N(C)[C@@H](C)C(=O)N[C@@H](CC(C)C)C(=O)N(C)[C@@H](CC(C)C)C(=O)N(C)[C@@H](Cc2c[nH]c3ccccc23)C(=O)N[C@@H](C(C)C)C(=O)N(C)[C@@H](CC(C)C)C(=O)N1C (stereo partly drawn) [pd102] ([NMeA]L[NMeL][NMeW]V[NMeL][NMeξIle]T[Sar][NMeL]D-Piperidide; lactam N-11) |  | 1.1 ×10⁻⁶ cm/s
11 | CC[C@H](C)[C@@H]1NC(=O)[C@H](CC(C)C)N(C)C(=O)CN(C)C(=O)C[C@@H](C(=O)N2CCCCC2)NC(=O)[C@H](C)N(C)C(=O)[C@H](COC(C)(C)C)NC(=O)[C@H](CC(C)C)N(C)C(=O)[C@H](CC(C)C)N(C)C(=O)CN(C)C(=O)[C@H](Cc2c[nH]c3ccccc23)NC(=O)[C@H](CC(C)C)N(C)C1=O [pd103] ([Sar][NMeL]I[NMeL]W[Sar][NMeL][NMeL]S(tBu)[NMeA]D-Piperidide; lactam N-11) |  | 0.093 ×10⁻⁶ cm/s
12 | CC(C)C[C@H]1C(=O)N(C)[C@@H](Cc2c[nH]c3ccccc23)C(=O)N(C)[C@@H](Cc2ccccc2)C(=O)N[C@@H]([C@@H](C)O)C(=O)N(C)[C@@H](C)C(=O)N(C)[C@@H](CC(C)C)C(=O)N[C@H](C(=O)N2CCCCC2)CC(=O)N(C)[C@@H](C)C(=O)N(C)[C@@H](CC(C)C)C(=O)N(C)[C@@H](CC(C)C)C(=O)N[C@@H](C)C(=O)N1C [pd104] ([NMeA][NMeL][NMeL]A[NMeL][NMeW][NMeF]T[NMeA][NMeL]D-Piperidide; lactam N-11) |  | 0.025 ×10⁻⁶ cm/s
13 | CC(C)C[C@H]1C(=O)N(C)[C@@H](CC(C)C)C(=O)N(C)[C@@H](Cc2c[nH]c3ccccc23)C(=O)N[C@@H]([C@@H](C)O)C(=O)N(C)[C@@H](C)C(=O)N(C)[C@@H](CC(C)C)C(=O)N[C@H](C(=O)N2CCCCC2)CC(=O)N(C)[C@@H](C)C(=O)N(C)[C@@H](CC(C)C)C(=O)N(C)[C@@H](CC(C)C)C(=O)N[C@@H](C)C(=O)N1C [pd105] ([NMeA][NMeL][NMeL]A[NMeL][NMeL][NMeW]T[NMeA][NMeL]D-Piperidide; lactam N-11) |  | 0.28 ×10⁻⁶ cm/s
